“Also recorded” adds a separate entry of the source. Where a SMILES comes first, the peptide text is derived from it. [ ]: non-standard residue; d: D form. dPhe(4-F) = N[C@H](Cc1ccc(F)cc1)C(=O)O
Experiments:
Abeta monomers = target: T1, Abeta monomers (Homo sapiens, UniProt P05067); assay: Peptide microarray, binding of FITC Abeta monomers to immobilized peptides; details: for Binding specificity monomer to fibrils: quotient binding signal to monomers / binding signal to fibrils; for Binding specificity monomer to oligomer: quotient binding signal to monomers / binding signal to oligomers
T1 construct: incubate with FITC Abeta monomers, oligomers, fibrils and FITC for 1 hour at room temperature
T1 sequence (P05067 672-713 limits assumed): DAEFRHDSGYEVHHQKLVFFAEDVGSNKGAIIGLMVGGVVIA
Procedure: (§1) The procedure for identifying peptides that bind specifically to amyloid beta monomer or specifically to amyloid beta oligomers and for determining the binding specificity of peptides within the meaning of the present invention can thus be as follows. Peptide microarrays comprising various peptides immobilized on a surface, such as derivatives of D3, are each incubated with different species of Abeta (such as monomers, oligomers and fibrils) labeled with a fluorescent dye. A peptide microarray is incubated with only the fluorescent dye to serve as the control. So as to ensure the reproducibility of the results, the incubation of the peptide microarrays can be carried out at least three times for each species. The binding of the fluorescence-labeled Abeta to the immobilized peptides is detected by way of the fluorescent dye. The more Abeta binds to the peptide, the higher the fluorescence signal is. The measured fluorescence signals of the reproductions are standardized, and the […]. This avoids binding of the fluorescence-labeled Abeta via the dye. The binding signals of an Abeta species to a peptide are then averaged. So as to determine the binding specificity, the quotient of the species to which the peptide is to specifically bind and another species is found.
(§2) Pretreatment of the peptide microarray slides: • briefly dip 3× in ethanol (96%) and then wash with H2O (30 minutes) • briefly dry by way of centrifuging
(§3) Preparation of monomers and oligomers: • size exclusion chromatography according to Johansson et al. 2006 (Johansson, A.-S. et al. Physiochemical characterization of the Alzheimer's disease-related peptides Aβ1-42Arctic and Aβ1-42 wt. FEBS Journal 273, 2618-2630 (2006)). • oligomers were fractionated at 8-9 ml, monomers at 16-17 ml.
(§4) Carrying out the peptide microarray: • incubate with FITC Abeta monomers, oligomers, fibrils and FITC for 1 hour at room temperature • wash: TBS-T briefly 3× (only TBS-T buffer is replaced), 3×10 minutes in a flacon, 3×H2O, 3×10 minutes • dry by way of centrifugation • The binding of the fluorescence-labeled Abeta to the immobilized peptides is detected by way of the fluorescent dye using the microarray reader FLA800 from Fuji Film. The more Abeta binds to the peptide, the higher is the fluorescence signal. • carrier set mode: slides • resolution: 10 μm • scan mode: high sensitivity (slow): scan pixel at 200 mm/s • laser: 473 nm • filter: 530 DF 20 • photomultiplier tube (PMT) HV (%): 100 • images were stored as .tif files
(§5) The software, AIDA Metrix, from Raytest was used to evaluate the fluorescence signals:
(§6) To ensure the reproducibility of the results, the incubation of the peptide microarrays is carried out at least three times for each species.
(§7) The measured fluorescence signals of the reproductions are standardized using a median-based standardization, and the control was subtracted from the signal. This avoided the binding of the fluorescence-labeled Abeta via the dye.
(§8) The binding signals of an Abeta species to a peptide were averaged.
So as to determine the binding specificity, the quotient of the species to which the peptide is to specifically bind and another species is created.
Example: binding specificity of peptide X to Abeta monomers=binding signal of peptides X to monomers/binding signal of peptides X to oligomers.

Abeta oligomers [1] = target: T2, Abeta oligomers (Homo sapiens, UniProt P05067); assay: QIAD method, elimination of Abeta oligomers (density gradient centrifugation, RP-HPLC); assay type: biochemical; details: for Elimination of Abeta oligomers: ratio of Abeta to peptide of 8:1, fractions 4-6, FIG. 2; for Elimination of Abeta oligomers compared to D3: ratio of Abeta to peptide of 8:1, FIG. 2
T2 sequence (P05067 672-713 limits assumed): as above
Procedure: Using the QIAD method for the quantitative characterization of amyloid peptides and/or proteins in a sample, it was possible to quantify the properties of the substances. Pre-incubated Abeta was co-incubated with the peptides. The different Abeta species were separated by way of density gradient centrifugation and quantified in the individual fractions by way of RP-HPLC Abeta. The elimination of the Abeta oligomers in fractions 4-6 was analyzed.

SH-SY5Y cells [2] = assay: MTT assay on SH-SY5Y cells without Abeta co-incubation; assay type: cell-based; details: FIG. 4a
Source text: (§9) No noteworthy toxicity of the peptides according to the invention in therapeutically relevant concentrations was established in the MTT assay on SH-SY5Y cells known to a person skilled in the art (FIG. 4). […] Based on current knowledge, Abeta oligomer is the toxic species.
(§10) The significances are based on the respective concentration with D3 (* p≤0.05; ** p≤0.01; *** p≤0.001; n. s. not significant).

Abeta fibrils [3] = target: T3, Abeta fibrils (Homo sapiens, UniProt P05067); assay: ThT assay, formation of ThT positive Abeta fibrils; assay type: biochemical; details: for ThT fluorescence during the entire measuring time period: 48 hours, co-incubation with Abeta, FIG. 3
T3 construct: Pre-incubated Abeta was co-incubated with the peptides
T3 sequence (P05067 672-713 limits assumed): as above

SH-SY5Y cells [4] = assay: MTT assay on SH-SY5Y cells with Abeta co-incubation; assay type: cell-based; details: for Reduction of the toxicity caused by Abeta: co-incubating Abeta with peptide in various concentrations, FIG. 4b; for Reduction of Abeta toxicity compared to D3: respective concentration with D3, FIG. 4b
Source text: as §9, §10

transgenic AD mice = details: oral administration with drinking water; cited from earlier work
Abeta fibrils [5] = target: T3, Abeta fibrils; assay: Peptide microarray, binding of FITC Abeta fibrils to immobilized peptides; details: 1 hour at room temperature, control subtracted, averaged
Procedure: as §1, §2
Preparation of fibrils: • incubate Abeta over 3 days, centrifuge, discard supernatant and resuspend in buffer (repeat 3 times)
as §4, §5, §6, §7, §8

Abeta oligomers [6] = target: T2, Abeta oligomers; assay: Peptide microarray, binding of FITC Abeta oligomers to immobilized peptides; details: 1 hour at room temperature, control subtracted, averaged
Procedure: as §1, §2, §3, §4, §5, §6, §7, §8

Compound | Binding specificity monomer to fibrils (Abeta monomers) | Binding specificity monomer to oligomer (Abeta monomers) | Elimination of Abeta oligomers (Abeta oligomers [1]) [%] | Toxic effect of the peptide alone on the cells (SH-SY5Y cells [2]) | ThT fluorescence during the entire measuring time period (Abeta fibrils [3]) | Reduction of the toxicity caused by Abeta (SH-SY5Y cells [4]) | Reduction of Abeta toxicity compared to D3 (SH-SY5Y cells [4]) | Binding specificity with respect to Abeta monomer (Abeta monomers; FIG. 1b, quotient of binding signals) | Binding signal to Abeta monomers (Abeta monomers; peptide microarray, FITC Abeta, 1 hour at room temperature, control subtracted, averaged) [rfu] | Cognitive abilities of treated transgenic AD mice (transgenic AD mice) | Plaque in treated transgenic AD mice (transgenic AD mice) | Binding signal to Abeta fibrils (Abeta fibrils [5]) [rfu] | Binding signal to Abeta oligomers (Abeta oligomers [6]) [rfu] | Elimination of Abeta oligomers compared to D3 (Abeta oligomers [1]) | ThT fluorescence (Abeta fibrils [3]; after 48 hours) [rfu] | ThT fluorescence as % of the ThT fluorescence of Abeta control (Abeta fibrils [3]; after 48 hours) [%]
CC[C@@H](C)[C@@H](NC(=O)[C@@H](CCCNC(=N)N)NC(=O)[C@@H](CCCCN)NC(=O)[C@H](N)CCCNC(=N)N)C(=O)N[C@H](CCCNC(=N)N)C(=O)N[C@H](CC(C)C)C(=O)N[C@@H](C(=O)N[C@H](Cc1ccc(O)cc1)C(=O)N[C@H](Cc1c[nH]cn1)C(=O)N[C@H](Cc1c[nH]c2ccccc12)C(=O)N[C@H](CC(N)=O)C(=O)N[C@H](CCCNC(=N)N)C(N)=O)C(C)C [ANK4, rkrirlvyhwnr] (H-[dR][dK][dR][dI][dR][dL][dV][dY][dH][dW][dN][dR]-NH2) | 4.3 | 3.3 | 59±16 | do not have a toxic effect | slight increase | reduced; also recorded: reduction in the Abeta toxicity was achieved | more efficient | – | – | – | – | – | – | – | – | –
rprtrlhthrnr [D3, reference compound] | 0.6 | 0.8 | 50±10 | – | – | – | – | less than 1 | 0.5 | significantly improved cognitive abilities | considerably less plaque | 0.8 | 0.6 | – | – | –
CC[C@@H](C)[C@@H](NC(=O)[C@@H](Cc1c[nH]cn1)NC(=O)[C@H](NC(=O)[C@@H](Cc1ccc(F)cc1)NC(=O)[C@@H](CC(C)C)NC(=O)[C@@H](CCCNC(=N)N)NC(=O)[C@H](NC(=O)[C@@H](CCCNC(=N)N)NC(=O)[C@@H](CCCCN)NC(=O)[C@H](N)CCCNC(=N)N)C(C)C)[C@H](C)O)C(=O)N[C@H](CCCCN)C(=O)N[C@H](CCCNC(=N)N)C(N)=O [ANK7, rkrvrl02thikr] (H-[dR][dK][dR][dV][dR][dL][dPhe(4-F)][dT][dH][dI][dK][dR]-NH2) | 6.8 | 6.4 | 73±1 | do not have a toxic effect | slight increase | reduced; also recorded: reduction in the Abeta toxicity was achieved | – | – | – | – | – | – | – | significantly more efficiently than D3 | – | –
CC(C)C[C@@H](NC(=O)[C@@H](CCCNC(=N)N)NC(=O)[C@H](NC(=O)[C@@H](CCCNC(=N)N)NC(=O)[C@@H](CCCCN)NC(=O)[C@H](N)CCCNC(=N)N)C(C)C)C(=O)N[C@@H](C(=O)N[C@H](Cc1ccc(O)cc1)C(=O)N[C@H](Cc1c[nH]cn1)C(=O)N[C@H](CCCCN)C(=O)N[C@H](CCCCN)C(=O)N[C@H](CCCNC(=N)N)C(N)=O)C(C)C [ANK5, rkrvrlvyhkkr] (H-[dR][dK][dR][dV][dR][dL][dV][dY][dH][dK][dK][dR]-NH2) | 2.2 | 5.9 | 72±2 | do not have a toxic effect | – | reduced; also recorded: reduction in the Abeta toxicity was achieved | – | – | – | – | – | – | – | significantly more efficiently than D3 | 1029 | 53
CC[C@@H](C)[C@@H](NC(=O)[C@@H](CCCNC(=N)N)NC(=O)[C@@H](CCCCN)NC(=O)[C@H](N)CCCNC(=N)N)C(=O)N[C@H](CCCNC(=N)N)C(=O)N[C@H](CC(C)C)C(=O)N[C@@H](C(=O)N[C@@H](C(=O)N[C@H](CCCCN)C(=O)N[C@H](CCCCN)C(=O)N[C@H](CCCCN)C(=O)N[C@H](CCCNC(=N)N)C(N)=O)[C@H](C)O)C(C)C [ANK6, rkrirlvtkkkr] (H-[dR][dK][dR][dI][dR][dL][dV][dT][dK][dK][dK][dR]-NH2) | 1.9 | 4.1 | 81±3 | do not have a toxic effect | slight increase | reduced; also recorded: reduction in the Abeta toxicity was achieved | more efficient | – | – | – | – | – | – | significantly more efficiently than D3 | – | –

Reference: patent publication US10174097B2, “Specific A-beta species-binding peptides for the therapy and/or diagnosis of Alzheimer's dementia” (Forschungszentrum Juelich GmbH, priority 2015, dated 2019)
